Test results reported in US6307080A, “Water-soluble zinc pyruvates or their hydrates, method for the product ion thereof and their use” (SKW Trostberg Aktiengesellschaft, priority 1998, dated 2001).

Key:
[1] = system: influenza A/Chile/1/83 or influenza B/Singapore/27/79 (viral hemagglutination of erythrocytes); test: Inhibition of influenza-induced viral hemagglutination (vHAI) of erythrocytes (RBC); format: cell-based, influenza A and influenza B viruses; details: Table 1; for IC50: read-out: HAI IC50
[2] = system: influenza A/Chile/1/83 or influenza B/Singapore/27/79 in MDCK cells; format: cell-based, influenza A and influenza B viruses; details: Table 1; for Plaque (plaque reduction assay): concentration in plaque reduction assay, MDCK cells, 30 min treatment; for Plaque Reduction: percentage reduction in number of plaque per unit volume (well), 30 min
Solubility = format: physicochemical; details: product of Berzelius's instructions, identified as zinc parapyruvate
type II diabetics = details: cited from earlier work
macrophages [3] = test: Inhibition of superoxide (HO2) release from activated macrophages (cytochrome C reduction); format: cell-based; details: in words
macrophages [4] = test: Binding/association of zinc pyruvate to macrophages (equilibrium dialysis)

Compound | Potency HAI [1] | IC50 [1] | Plaque (plaque reduction assay) [2] | Plaque Reduction [2] | other results
CC(=O)[O-].CC(=O)[O-].[Zn+2] [Zn(Ac)2] | 6.0 | 150 µM | 1700 µM | 15% | 
[Cl-].[Cl-].[Zn+2] [ZnCl2] | 5.0 | 100 µM | 1200 µM | 20% | 
O.[O]=[Zn] [ZnO.H2 O] | 4.5 |  | 1700 µM | 15% | 
[O]=[Zn] [ZnO.H2 O] |  | ~200 µM |  |  | 
CC(O)(CC(=O)C(=O)[O-])C(=O)[O-].[Zn+2] (centres unmarked) [zinc parapyruvate] |  |  |  |  | solubility (Solubility): sparingly soluble
[Zn] [zinc] |  |  |  |  | average fasting blood sugar (type II diabetics; after administration of zinc for 6 weeks, decrease from 250, Perger and coworkers): 142 mg %; fasting and postprandial blood sugar level (type II diabetics; other studies, zinc administration): decreases markedly
zinc pyruvate | 19.9 | 25.3 µM | 90.5 µM | 67% | inhibitory effect on the release of HO2 (respiratory burst activity) (macrophages [3]): regulatory and in part inhibitory effect; lysis of RBC cells begins at (erythrocytes (RBC)): 1000 µg/mL; binding constant (macrophages [4]; macrophages, cell count of 10^5, read-out: binding constant determined by equilibrium dialysis): 150 nM; association constant of zinc pyruvate to the macrophages (macrophages [4]; under these in-vitro conditions): 150 nM
